Measurements published in ChEMBL document CHEMBL3351659, “Amine-linked diquercitols as new α-glucosidase inhibitors” (Bioorg Med Chem Lett, 2014).

Assays:
[1] = Inhibition of alpha-glucosidase (unknown origin); set-up: species or system Homo sapiens
[2] = Inhibition of Baker's yeast alpha-glucosidase pre-incubated for 10 mins before para-nitrophenyl-alpha-D-glucopyranoside substrate addition; set-up: species or system Saccharomyces cerevisiae
[3] = Inhibition of rat intestinal maltase using maltose substrate incubated for 10 mins
[4] = target: Sucrase-isomaltase, intestinal (Rattus norvegicus, UniProt P23739); assay: Inhibition of rat intestinal sucrase using sucrose substrate incubated for 10 mins
Sucrase-isomaltase, intestinal, sequence (P23739 1-1013 limits assumed): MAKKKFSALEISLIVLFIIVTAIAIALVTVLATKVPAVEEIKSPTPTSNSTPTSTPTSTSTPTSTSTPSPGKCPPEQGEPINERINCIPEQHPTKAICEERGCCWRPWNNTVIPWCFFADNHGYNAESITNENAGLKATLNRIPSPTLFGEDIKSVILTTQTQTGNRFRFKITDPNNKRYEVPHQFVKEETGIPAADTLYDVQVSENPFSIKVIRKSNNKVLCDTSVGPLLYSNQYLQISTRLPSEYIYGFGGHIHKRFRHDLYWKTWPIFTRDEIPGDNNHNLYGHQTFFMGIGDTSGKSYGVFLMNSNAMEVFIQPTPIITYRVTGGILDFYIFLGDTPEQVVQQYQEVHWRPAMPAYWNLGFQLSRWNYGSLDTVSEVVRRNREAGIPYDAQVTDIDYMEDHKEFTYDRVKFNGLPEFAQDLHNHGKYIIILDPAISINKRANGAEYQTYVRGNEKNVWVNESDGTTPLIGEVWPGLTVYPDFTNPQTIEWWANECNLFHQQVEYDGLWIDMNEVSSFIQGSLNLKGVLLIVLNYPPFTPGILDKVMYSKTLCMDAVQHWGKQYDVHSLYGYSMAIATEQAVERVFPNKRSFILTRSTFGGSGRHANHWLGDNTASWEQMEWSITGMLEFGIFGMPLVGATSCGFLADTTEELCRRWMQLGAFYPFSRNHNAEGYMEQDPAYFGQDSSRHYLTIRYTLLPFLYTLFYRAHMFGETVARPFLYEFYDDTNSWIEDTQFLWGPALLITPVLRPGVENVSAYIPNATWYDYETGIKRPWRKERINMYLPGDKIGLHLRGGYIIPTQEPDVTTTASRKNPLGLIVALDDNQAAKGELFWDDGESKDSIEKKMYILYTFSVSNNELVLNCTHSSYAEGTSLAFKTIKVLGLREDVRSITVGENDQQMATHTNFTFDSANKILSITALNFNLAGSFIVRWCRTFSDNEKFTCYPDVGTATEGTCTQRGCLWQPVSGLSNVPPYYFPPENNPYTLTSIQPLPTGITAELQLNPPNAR
Sucrase-isomaltase, intestinal, sequence (P23739 1014-1841 limits assumed): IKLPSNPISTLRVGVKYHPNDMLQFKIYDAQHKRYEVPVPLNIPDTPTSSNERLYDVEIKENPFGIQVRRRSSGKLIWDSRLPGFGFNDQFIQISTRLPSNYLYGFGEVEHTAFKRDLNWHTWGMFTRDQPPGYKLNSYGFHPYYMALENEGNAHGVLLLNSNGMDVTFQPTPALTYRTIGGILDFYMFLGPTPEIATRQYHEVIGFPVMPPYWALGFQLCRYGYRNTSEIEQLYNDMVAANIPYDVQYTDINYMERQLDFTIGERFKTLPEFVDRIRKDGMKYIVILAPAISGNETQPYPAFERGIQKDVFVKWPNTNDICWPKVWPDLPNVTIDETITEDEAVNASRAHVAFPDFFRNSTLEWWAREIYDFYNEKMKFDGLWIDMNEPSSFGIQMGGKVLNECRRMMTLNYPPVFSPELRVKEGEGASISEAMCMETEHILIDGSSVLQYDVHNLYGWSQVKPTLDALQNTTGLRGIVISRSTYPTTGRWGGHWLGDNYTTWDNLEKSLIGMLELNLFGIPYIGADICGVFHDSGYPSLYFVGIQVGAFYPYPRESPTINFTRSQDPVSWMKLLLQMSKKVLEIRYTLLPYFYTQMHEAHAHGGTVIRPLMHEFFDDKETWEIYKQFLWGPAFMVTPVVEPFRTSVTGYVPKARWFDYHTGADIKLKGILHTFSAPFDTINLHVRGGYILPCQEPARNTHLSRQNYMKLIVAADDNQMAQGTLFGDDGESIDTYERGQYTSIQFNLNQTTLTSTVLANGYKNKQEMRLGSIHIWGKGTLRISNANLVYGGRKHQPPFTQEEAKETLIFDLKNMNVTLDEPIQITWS

SMILES	IC50 [1]	IC50 [2]	IC50 [3]	IC50 [4]
C[C@H]1O[C@H](O[C@H]2[C@H](O)[C@@H](O)[C@@H](O[C@H]3[C@H](O)[C@@H](O)C(O)O[C@@H]3CO)O[C@@H]2CO)[C@H](O)[C@@H](O)[C@@H]1N[C@H]1C=C(CO)[C@@H](O)[C@H](O)[C@H]1O (some centres undefined) [ACARBOSE]		404 µM	1.5 µM	
O[C@H]1[C@H](O)[C@@H](N[C@H]2C=C[C@@H](O)[C@@H](O)[C@@H]2O)C=C[C@H]1O	1400 µM			
O[C@@H]1[C@@H](O)[C@H](O)C[C@H](N[C@H]2C[C@H](O)[C@@H](O)[C@H](O)[C@@H]2O)[C@@H]1O		40.1 µM	3.6 µM	4 µM
OC1CC(N[C@H]2C[C@@H](O)[C@H](O)[C@@H](O)[C@H]2O)[C@@H](O)[C@@H](O)[C@@H]1O (single isomer, unassigned)		32.3 µM	3.1 µM	3.7 µM
CC(=O)N([C@H]1[C@H](O)[C@H](O)[C@@H](O)[C@@H](O)[C@@H]1O)[C@H]1[C@H](O)[C@H](O)[C@@H](O)[C@@H](O)[C@@H]1O	370 µM			

The next lines start with results.

IC50 [1]	IC50 [2]	IC50 [3]	SMILES	IC50 [4]
1350 µM			CC(=O)N([C@H]1C=C[C@@H](O)[C@@H](O)[C@@H]1O)[C@H]1C=C[C@@H](O)[C@@H](O)[C@@H]1O	
	2890 µM	5.8 µM	N[C@H]1C[C@@H](O)[C@H](O)[C@@H](O)[C@H]1O	7.3 µM
	12.5 µM	4.4 µM	N[C@@H]1C[C@@H](O)[C@H](O)[C@@H](O)[C@H]1O	6.8 µM
> 2000 µM			O[C@@H]1[C@@H](O)[C@@H](O)[C@H](N[C@H]2[C@H](O)[C@H](O)[C@@H](O)[C@@H](O)[C@@H]2O)[C@@H](O)[C@@H]1O	
> 2000 µM			N[C@H]1[C@H](O)[C@H](O)[C@@H](O)[C@@H](O)[C@@H]1N[C@H]1[C@H](O)[C@H](O)[C@@H](O)[C@@H](O)[C@@H]1O	
